Assay results published in patent US20130171273A1, “METHOD OF TREATING IMPAIRED WOUND HEALING IN DIABETICS” (KUWAIT UNIVERSITY, priority 2011, published 2013).
Where “and” joins values, the source holds several entries; their conditions need not be identical. Equal values may be shown once. Read-outs that look alike come from different tables or passages of the source. Values belong to the compound of their own block, whether it stands above or below them.

Experiments:
Nrf2 [1] = assay: Nuclear accumulation of Nrf2 in control fibroblasts (subcellular fractionation, Western blot); type: cell-based, rat; conditions: CFs, OS-inducing agent, FIG. 3D
Protocol: (§1) To quantify responses to oxidative stress activators, fibroblasts of control and of type 2 diabetes were treated with vehicle or the OS-inducing agents ‘t-butylhydroquinone (tBHQ, 100 μM, Sigma) or oligomycin (15 μM, Sigma) for 16 h. The Cells were processed for total RNA extraction or western blotting analysis as outlined below. Both of these compounds were dissolved in ethanol with a final concentration of 0.01%. […] To analyze protein expression and phosphorylation, cells were seeded in 6-well plates and treated as described above. They were washed with ice-cold PBS, scraped into PBS, and centrifuged at 1000 rpm for 5 min. The cell pellet was then subjected to subcellular fractionation. To make the total cell lysate, the cells were lysed with RIPA buffer supplemented with a protease inhibitor mixture and a phosphatase inhibitor mixture. The protein concentration was determined using BCA protein assay reagents (Pierce). […]

Nrf2 [2] = assay: Nuclear accumulation of Nrf2 in diabetic fibroblasts (subcellular fractionation, Western blot); type: cell-based, rat; conditions: for nuclear accumulation of Nrf2: DFs, OS-inducing agent, compared with CFs, FIG. 3D
Protocol: To quantify responses to oxidative stress activators, fibroblasts of control and of type 2 diabetes were treated with vehicle or the OS-inducing agents ‘t-butylhydroquinone (tBHQ, 100 μM, Sigma) or oligomycin (15 μM, Sigma) for 16 h. The Cells were processed for total RNA extraction or western blotting analysis as outlined below. Both of these compounds were dissolved in ethanol with a final concentration of 0.01%. […] To analyze protein expression and phosphorylation, cells were seeded in 6-well plates and treated as described above. They were washed with ice-cold PBS, scraped into PBS, and centrifuged at 1000 rpm for 5 min. The cell pellet was then subjected to subcellular fractionation. To make the total cell lysate, the cells were lysed with RIPA buffer supplemented with a protease inhibitor mixture and a phosphatase inhibitor mixture. The protein concentration was determined using BCA protein assay reagents (Pierce). Fifty micrograms of total cell lysate (or cytosolic, or nuclear) fractions were resolved on a 10% SDS-polyacrylamide gel, Western blotted, and probed with antibodies specific for Nrf2, Kcap1 or Fyn (all from Santa Cruz) or GSK-3β, GSK-3β-phosho-Ser9 (P-GSK3-β, and phosphor GSK-α/-β (pTyr279/pTyr216) (Cell Signaling). The purity of the subcellular fractions was confirmed using the anti-LDH antibody (Chemieon International) and the anti-PCNA antibody (Santa Cruz) for cytosolic and nuclear fractions, respectively. The levels of protein on a Western blot were assessed using Quantity One Image software (Bio-Rad) and normalized against suitable loading controls, including anti-β-actin antibody for total and cytosolic fractions and anti-PCNA antibody for the nuclear fraction.

[3] = system: diabetic fibroblasts (DFs); assay: mRNA of Nrf2-regulated genes by real-time PCR in diabetic fibroblasts; type: cell-based, rat; conditions: tBHQ treatment
Protocol: (§2) To quantify responses to oxidative stress activators, fibroblasts of control and of type 2 diabetes were treated with vehicle or the OS-inducing agents ‘t-butylhydroquinone (tBHQ, 100 μM, Sigma) or oligomycin (15 μM, Sigma) for 16 h. The Cells were processed for total RNA extraction or western blotting analysis as outlined below. Both of these compounds were dissolved in ethanol with a final concentration of 0.01%. […] To measure transcription of Nrf2 target genes and NADPH oxidase genes, RNA (1 μg) was isolated from cultured fibroblasts using Trizol reagent (Invitrogen) and reverse transcribed for 1 h at 37° C. using the High Capacity cDNA Reverse Transcription Kit. Real-time quantitative RT-PCR was performed with the TaqMan Gene Expression Assay and was normalized against 18S RNA using an ABI 7900 Real-time PCR System (Applied Biosystems). Primers and probes were designed by and purchased from Applied Biosystems. Primer efficiency and specificity were verified by amplifying standard dilutions of a probe obtained by pooling all the samples and by melting curve analysis, respectively.

[4] = system: control fibroblasts (CFs); assay: mRNA of Nrf2-regulated genes by real-time PCR in control fibroblasts; type: cell-based, rat
Protocol: as §2

Nrf2 [5] = assay: Nrf2 level in total cell lysates (Western blot); type: cell-based, rat; conditions: control and diabetic fibroblasts, to about the same extent, FIG. 3A
Protocol: as §1

[6] = system: diabetic fibroblasts (DFs); conditions: for loss in cell viability: rat, 16 h
Protocol: (§3) To quantify relative cell death in control and diabetic fibroblasts, cells were seeded at 1×10^4 cells/well on a 96-well plate. After a 24 h incubation period, the cells were exposed to various concentrations of HP in serum-free medium at 37° C. for 2 h [lactate dehydrogenase (LDH), a marker for necrotic cell death] or for 16 h (cell viability and apoptosis assay). Quantification of cell viability and caspase-3-like activity was achieved using a Cell Counting Kit-8 (Dojindo, Kumamoto, Japan) and an Apo-ONE homogenous caspase-3/7 assay (Promega), respectively. The values obtained were normalized to the vehicle-treated cells. To measure the rate of necrotic cell death, a LDH release assay was performed using a CytoTox-ONE Homogeneous Membrane Integrity Assay kit (Promega). In some experiments, cells were pre-incubated for 1 h with 2 μg of the ATPase inhibitor oligomycin before exposure to HP.

[7] = system: control fibroblasts (CFs); conditions: rat, 16 h
Protocol: as §3

CFs and DFs = assay: Lipid peroxidation (DPPP fluorescence) in control and diabetic fibroblasts; type: cell-based, rat; conditions: stressed CFs and DFs; markedly higher in diabetic than in control cells, FIG. 1E
Protocol: To measure lipid peroxidation and plasma membrane redox system (PMRS) enzymes, a total of 10-20 μg of purified plasma membrane protein in a butler containing 50 mM Tris at pH 7.6, 0.2 mM NADH, and 0.1% Triton X-100 was analyzed in the spectrophotometric determination (340 nm) of the activities of NADH CoQ and NADH-ascorbate free radical reductase [also known cytochrome b5 reductase, following the respective additions of coenzyme Q (0.2 mM) and fresh ascorbate (0.4 mM). NQO1 activity was measured at 550 nm in solution buffer containing 5 mM. Tris-HCl at pH 7.6, 0.2 mM NADPH, 0.1% Triton X-100, 10 μM menadione and 75 μM cytochrome c with or without dicoumarol. Calculation of the activity of NQO1 was based on the difference between the uninhibited and the dicoumarol-inhibited samples. Cells were assessed for lipid peroxidation using the diphenyl-1-pyrenylphosphine (DPPP, Invitrogen) fluorescence-based assay. […] The plate was read for DPPP fluorescence (excitation at 340 nm and emission at 405 nm) in a 96-well fluorescence plate reader. […]
To monitor whether the diabetes-induced elevation in intracellular levels of ROS may reflect an increase in lipid peroxidation, a marker of accumulative oxidative stress (OS), the lipid peroxide formation of CFs and DFs at baseline and under stressed conditions was measured using the dye DPPP, which intercalates and reacts with lipid hydroperoxides.

[8] = system: control fibroblasts (CFs); assay: Caspase-3-like activity (Apo-ONE caspase-3/7 assay), control fibroblasts; type: cell-based, rat
Protocol: as §3

NADPH oxidase = assay: NADPH-dependent superoxide generation in membrane fractions (lucigenin chemiluminescence / SOD-inhibitable cytochrome c reduction); type: biochemical, rat; conditions: membrane fractions of diabetic fibroblasts
Protocol: To study NADPH oxidase activity, cell pellets collected by trypsinization and suspended in 20 mM MOPS-KOH buffer, pH 7.4 containing 250 mM, 0.1 mM EDTA and a cocktail of protease inhibitors. The cells were disrupted by sonication on ice and the cell lysates were fractionated by centrifugation twice at 29,000×g for 15 min, discarding the supernatant each time. The pellet was resuspended in sucrose buffer and assayed for NADPH oxidase activity using lucigenin chemiluminescence or cytochrome c reduction-based assay. Briefly, membrane fractions (˜10 μg protein) were diluted in sucrose buffer/protease inhibitors and then lucigenin was added ((5 μM) in the presence or absence of 100 μM NADPH. The chemiluminescence was measured in 30 sec intervals over 5 min. The specificity of superoxide measured was confirmed by adding peg-SOD (10 units/ml). For the assessment of SOD-inhibitable cytochrome reduction, ˜100 μg membrane protein was added to a buffer containing cytochrome c (50 μM), NADPH (100 μM) and in the presence or absence of peg-SOD. After one hr, activity was measured as the SOD-inhibitable increase in absorbance at 550 nm (EmM=21). Assay conditions were established confirming the linearity of superoxide production with time and protein concentrations.
Following the procedures above, it was determined that superoxide generation over a 30-minute period was 55% higher in DFs relative to corresponding control values (FIG. 1A). This radical is a by-product of mitochondrial respiration and enzymatic oxidases. Accordingly, it was examined whether the observed elevation in superoxide stemmed from enhanced activity of the non-phagocytic NAD(P)H oxidase.

[9] = system: diabetic fibroblasts (DFs); assay: Superoxide generation in diabetic fibroblasts (dihydroethidium fluorescence); type: cell-based, rat; conditions: superoxide generation over a 30-minute period, FIG. 1A
Protocol: Primary rat fibroblasts were derived from dorsal skin biopsies performed on four diabetic Goto Kakizaki rats (DFs) and four age (12-14 months) and sex (female) matched Wistar control rats (CFs). After sterilization in povidine solution, the rat skin was washed in sterile water and rinsed in 70% ethanol in phosphate buffered saline (PBS). The epidermis and dermis were separated following overnight incubation in 0.25% Trypsin/EDTA at 4° C. Samples were washed, diced and digested for thirty min at 37° C. in collagenase type I (250 U/ml) dissolved in Dulbecco's modified Eagle medium (DMEM; Invitrogen) containing penicillin (100 U/ml), streptomycin (100 μg/ml), 2 mM L-glutamine and 26 mM HEPES. After collagenase treatment, the cells were dislodged, centrifuged and resuspended in medium supplemented with 10% fetal bovine serum. […]
To characterize oxidative conditions of cutaneous tissue, cells in 96-well plates were washed with Krebs Ringer buffer and then incubated at 37° C. in the presence of 10 μM of dihydroethidium (DHE, Molecular Probes). Fluorescence readings were taken at Ex 530 nm and Em=595 nm over a 30 min period. The determination of GSH (reduced glutathione) was achieved using the fluorescence probe monochlorobimane (MCB, Molecular Probes). Cells were incubated with 100 μl of […] MCB for 20 min at 37° C., and the fluorescence intensity was measured at Ex=390 nm and Em=460 nm. […]

[10] = CFs / normal fibroblasts, tBHQ treatment

Compound: CC(C)(C)c1cc(O)ccc1O [tBHQ, tert-butylhydroquinone]
Nrf2 in the nuclei-enriched fraction (Nrf2 [1]): markedly elevated | nuclear accumulation of Nrf2 (Nrf2 [2]): far smaller increase | percent increase of Nrf2-dependent transcripts (catalase, GSTP1, GCLC, NQO1) ([3]; DFs, FIG. 3E): 32%-78% | upregulation of anti-oxidative enzymes ([3]; cells with overabundant oxidative stress and impaired Nrf2 response): 1.5 to 2 fold | increase of GCLC mRNA expression [4, 10]: 5-7 fold and 5.7 fold | increase of GSTP1 mRNA expression [4, 10]: 5-7 fold and 6.3 fold | increase of NQO1 mRNA expression [4, 10]: 4-6 fold and 4.8 fold | increase of catalase mRNA expression [4, 10]: 7-10 fold and 8.8 fold | increase of GR mRNA expression ([4]; normal fibroblasts, tBHQ treatment): 3-4 fold | levels of Cu/Zn SOD or Mn-SOD (SOD2) mRNA ([4]; tBHQ treatment, cell type not given): no observable changes | level of Nrf2 in total cell lysates (Nrf2 [5]): elevates

Compound: OO [HP, hydrogen peroxide]
fold increase in caspase-3-like activity ([6]; 50 μM HP): 5.4 fold | loss in cell viability ([6]; 37.5 μM): 17% | loss in cell viability ([6]; 50 μM): 55% | loss in cell viability ([6]; 75 μM): 78% | loss in cell viability ([7]; 37.5 μM): 6% | loss in cell viability ([7]; 50 μM): 22% | loss in cell viability ([7]; 75 μM): 53% | lipid peroxidation (DPPP fluorescence) (CFs and DFs): enhancement in lipid peroxidation | fold increase in caspase-3-like activity ([8]; controls (CFs), 50 μM HP): 8.2 fold

reduction of NADPH-dependent superoxide production (activity) (NADPH oxidase; FIG. 1B): about 87%
Compound: c1ccc(Cn2nnc3c(Sc4nc5ccccc5o4)ncnc32)cc1 [VAS2870]
reduction of the diabetes-related increase in superoxide [9]: about 31%

Compound: CC[C@H]1/C=C/C=C/C[C@@H](C)[C@H](O)[C@@](C)(O)C(=O)[C@@H](C)[C@H](O)[C@@H](C)C(=O)[C@@H](C)[C@H](O)[C@@H](C)/C=C/C(=O)O[C@@H]2[C@H](C)[C@H](CC1)O[C@]1(CC[C@H](C)[C@H](C[C@@H](C)O)O1)[C@H]2C [oligomycin]
Nrf2 in the nuclei-enriched fraction (Nrf2 [1]): markedly elevated | nuclear accumulation of Nrf2 (Nrf2 [2]): far smaller increase | expression of Mn-SOD, catalase, GSTP1, GCLC and NQO1 mRNA ([4]; CFs, oligomycin treatment, FIG. 3F): increase in the expression of Mn-SOD, catalase, GSTP1 and GCLC but not of NQO1 | ability of HP to enhance caspase-3-like activities ([8]; CFs pre-treated with a 2-μg dose of oligomycin): suppresses

Compound: CC(C)(C)OO [t-BHP]
lipid peroxidation (DPPP fluorescence) (CFs and DFs): enhancement in lipid peroxidation

Compound: Cn1sc(=O)n(Cc2ccccc2)c1=O [TDZD-8, 4-benzyl-2-methyl-1,2,4-thiadiazolidine-3,5-dione]
basal and inducible levels of nuclear Nrf2 (Nrf2 [2]; DFs pretreated 8 h with lithium chloride 50 mM or TDZD-8 50 μM, FIG. 4B only shown for lithium): partially normalized

effect on superoxide production (NADPH oxidase): did not have a significant effect
Compound: Oc1ncnc2[nH]ncc12 [allopurinol]

Compound: COC(=O)[C@@H](N)CCCNC(=N)N[N+](=O)[O-] [L-NAME]
effect on superoxide production (NADPH oxidase): did not have a significant effect
